Earlier results in patent publication US20210315817A1, “C[…] SELF-EMULSION SYSTEMS FOR INFUSED COMPOSITIONS” (HEXO […]., priority 2018, published 2021).

Conditions: individual emulsifier HLB value

## polyoxyethylene sorbitan monolaurate [Tween ® 20]
  Emuls. HLB: 16.7
